Key:
[1] = test system: rats with focal cerebral ischemia-reperfusion injury (MCAO rats); experiment: Rat focal cerebral ischemia-reperfusion model (internal carotid artery suture method), area of cerebral infarction by TTC staining; format: in vivo, Sprague-Dawley (SD) rats; settings: 24 hours after cerebral ischemia, mean ± SD
[2] = test system: rats with focal cerebral ischemia-reperfusion injury (MCAO rats); experiment: as above; format: in vivo, Sprague-Dawley (SD) rats; settings: for Area of cerebral infarction (%): 24 hours after cerebral ischemia, mean ± SD; for area of cerebral infarction in MCAO rats (in words) / neurological deficits in MCAO rats: cilostazol at 1-15 mg/kg or edaravone at 1.67-8.33 mg/kg in the tail vein
Experimental: The experimental animals were divided into 4 groups, cilostazol group (1 mg/kg), edaravone group (5 mg/kg), cilostazol and edaravone composition group (6 mg/kg, cilostazol:edaravone=1:5, cilostazol 1 mg/kg+edaravone 5 mg/kg) and model group. After the cerebral ischemia model was established, the animals were assigned to each group in a single-blind manner with equal probability. After reperfusion, the animals were immediately administered intravenously with the drugs once. The animals in the model group were administered with an equal volume of normal saline. The animals were sacrificed 24 hours after cerebral ischemia, and their brains were taken out, stained, and photographed for determining the area of cerebral infarction.
The rat focal cerebral ischemia-reperfusion model was established by internal carotid artery suture method. The limbs (hind limbs above the knee joint and forelimbs below the wrist joint) and head of an anesthetized rat were tightened with rubber bands. The animal was fixed on an operating table in supine position, and was shaved with an animal shaver from the head to the chest, and the skin was disinfected with alcohol. The neck of the rat was cut at the midline, and the subcutaneous tissue was bluntly separated. The thin layer of fascia on the surface of the anterior triangle of the neck was separated, the lower side-lower edge of the clavicular hyoid muscle was pulled up, and the longitudinally pulsating artery parallel to this muscle can be seen. The arterial shell was opened, and the bifurcation of the right carotid artery was exposed. The right common carotid artery, external carotid artery and internal carotid artery were separated. The vagus nerve was gently stripped, and the external carotid artery was ligated and cut. The proximal end of the common carotid artery was clamped. An incision was made at the distal end from the ligature of the external carotid artery, and was inserted with a suture line, which was passed through the bifurcation of the common carotid artery into the internal carotid artery, and then was inserted slowly until reaching slight resistance (approximately 20 mm from the bifurcation), so as to block all blood supply to the middle cerebral artery. The suture line was slightly fixed below the incision of the external carotid artery with silk thread. The silk thread clamping the proximal end of the common carotid artery was loosened. A gauze soaked in sterile saline was covered on the wound, and the rat was placed on a heat preservation pad to keep warm. 2.0 h after cerebral ischemia on the right side, the suture line was pulled out gently to restore the blood supply for reperfusion. The external carotid artery was ligated with silk thread fixing the suture line. The skin was stitched, and disinfected. The rats were placed in clean feed, and their general condition and respiration were observed until they woke up from anesthesia. The rats were provided with food and water, and commonly reared.
The animals were subjected to evaluation of neurological deficit symptoms and then sacrificed with CO2. The brain was taken out by cutting off head. The olfactory bulb, cerebellum and lower brainstem were removed. The blood on the surface of the brain was washed with normal saline, and the residual water on the surface was removed. The brain was placed at −20° C. for 20 min, then taken out, immediately cut to a coronal section vertically downward at the crossing plane of the line of sight, and sliced backward every 2 mm. The brain slices were incubated in 1% TTC staining solution (at 37° C. for 30 min). The normal brain tissue was stained into dark red, and the ischemic brain tissue was stained into pale white. After being washed with normal saline, the brain slices were quickly arranged in a row from front to back, removed off the residual water on the surface, and photographed. […]

plasma protein = settings: background statement; cited from earlier work
[3] = test system: mice with focal cerebral ischemia-reperfusion injury (MCAO mice); experiment: Mouse focal cerebral ischemia-reperfusion model (internal carotid artery suture method), area of cerebral infarction by TTC staining; format: in vivo, C57BL/6J mice; settings: cilostazol at 3.33-16.67 mg/kg or edaravone at 3.33-16.67 mg/kg in the tail vein
Experimental: The animals were subjected to evaluation of neurological deficit symptoms and then sacrificed with CO2. The brain was taken out by cutting off head. The olfactory bulb, cerebellum and lower brainstem were removed. The blood on the surface of the brain was washed with normal saline, and the residual water on the surface was removed. The brain was placed at −20° C. for 20 min, then taken out, immediately cut to a coronal section vertically downward at the crossing plane of the line of sight, and sliced backward every 2 mm. The brain slices were incubated in 1% TTC staining solution (at 37° C. for 30 min). The normal brain tissue was stained into dark red, and the ischemic brain tissue was stained into pale white. After being washed with normal saline, the brain slices were quickly arranged in a row from front to back, removed off the residual water on the surface, and photographed.
Calculation of area of cerebral infarction: The photos were processed by Image J software, and the corresponding area of left brain and non-infarction area of right brain were calculated according to the formula, so that the percentage of the area of infarction was calculated.
The experimental animals were divided into 4 groups, a model group and three groups of compositions of cilostazol/edaravone (respectively a group of cilostazol 3.33 mg/kg+edaravone 16.67 mg/kg in 1:5; a group of cilostazol 5.71 mg/kg+edaravone 14.29 mg/kg in 1:2.5; a group of cilostazol 10 mg/kg+edaravone 10 mg/kg in 1:1, and each composition was administered at a total amount of 20 mg/kg). After the cerebral ischemia model was established, the animals were assigned to each group in a single-blind manner with equal probability. After reperfusion, the animals were immediately administered intravenously with the drugs once. The animals in the model group were administered with an equal volume of normal saline. The animals were sacrificed 24 hours after cerebral ischemia, and their brains were taken out, stained, and photographed for determining the area of cerebral infarction.
Establishment of focal cerebral ischemia-reperfusion model: The mouse focal cerebral ischemia-reperfusion model was established by internal carotid artery suture method. An anesthetized mouse was fixed on an operating table in a supine position. The neck of the mice was cut at the midline, and the subcutaneous tissue was bluntly separated. The right common carotid artery, external carotid artery, and internal carotid artery were separated. […]

Row | Compound | Area of cerebral infarction (%) ([1]; Example 2, cilostazol 5 mg/kg i.v. once immediately after reperfusion, model group 40.50 ± 8.51) | Area of cerebral infarction (%) ([1]; Example 3, cilostazol 15 mg/kg i.v. once immediately after reperfusion, model group 39.41 ± 9.56) | Area of cerebral infarction (%) ([2]; Example 1, cilostazol 1 mg/kg i.v. once immediately after reperfusion, 2.0 h ischemia, model group 40.35 ± 8.24) | area of cerebral infarction in MCAO rats (in words) [2] | neurological deficits in MCAO rats [2] | binding rate to plasma protein (plasma protein) | area of cerebral infarction in MCAO mice (in words) [3] | neurological deficits in MCAO mice [3] | Area of cerebral infarction (%) ([1]; Example 3, edaravone 3 mg/kg i.v. once immediately after reperfusion, model group 39.41 ± 9.56) | Area of cerebral infarction (%) ([2]; Example 1, edaravone 5 mg/kg i.v. once immediately after reperfusion, model group 40.35 ± 8.24) | Area of cerebral infarction (%) ([2]; Example 2, edaravone 5 mg/kg i.v. once immediately after reperfusion, model group 40.50 ± 8.51)
1 | O=C1CCc2cc(OCCCCc3nnnn3C3CCCCC3)ccc2N1 [Cilostazol] | 32.59 ± 7.15 % | 27.26 ± 9.74 % | 34.24 ± 7.25% | reduce the area of cerebral infarction | significantly ameliorate the neurological deficits | about 95% | reduce the area of cerebral infarction | significantly ameliorate the neurological deficits |  |  | 
2 | CC1=NN(c2ccccc2)C(=O)C1 [Edaravone, 3-methyl-1-phenyl-2-pyrazolin-5-one] |  |  |  | reduce the area of cerebral infarction | significantly ameliorate the neurological deficits |  | reduce the area of cerebral infarction | significantly ameliorate the neurological deficits | 31.24 ± 6.83 % | 29.35 ± 10.45 % | 29.49 ± 9.06 %
